Laboratory results as given in patent publication US20020103131A1, “Prevention of diabetes by administration of GnRH antagonists” (priority 2001, published 2002).
Entries after “also recorded” stand apart in the source; their conditions may differ.

Columns and labels:
Type in all cases: in vivo
[1] = tested on: gonadectomized male NOD mice; experiment: Incidence and onset of diabetes in gonadectomized male NOD mice; details: 100 μg subcutaneously six times weekly
Description: (§1) The well-characterized NOD mice were used throughout the study. Male and female mice were purchased from the Jackson Laboratory (Bar Harbor, Me.). These mice are art-recognized animal models used in diabetes research. (Makino et al., (1980) Breeding of a Non-obese Diabetic Strain of Mice. Exp Anim, 29, 1-13; Miyazaki, A. T., et al, (1985) Predominance of T Lymphocytes in Pancreatic Islets and Spleen in Prediabetic Non-obese Diabetic (Nod) Mice: a Longitudinal Study. Clin Exp immunol, 60, 622-630)
(§2) Both intact and gonadectomized mice (GDX) were used. […] To compare the effects of GnRH agonists and antagonists, gonadectomized animals were randomized at 14 to 18 days of age and begun immediately in one of the following main treatment groups: GnRH agonist; Antide; vehicle. One group of gonadectomized males was treated with Nal-Glu, as an additional control. […]
(§3) Total immunoglobulin G concentrations were measured by single radial immunodiffusion assay using immunodiffusion plates containing monospecific antiserum for IgG (ICN Biomedicals, Inc., Costa Mesa, Calif.). […] Glycosuria was scored by comparison to reference standards on a scale of 0 to 4 as follows: negative=0; 30 mg/dL=1; 100 mg/dL=2; 300 mg/dL=3;>1000 mg/dL=4.
(§4) Serum immunoglobulin measurements were compared by two-tailed Student's paired t-tests. Percentages of mice remaining diabetes-free was assessed by Mantel-Haenszel methodology. […]

NOD mice = experiment: Serum prolactin by radioimmunoassay in treated NOD mice; details: NOD mice under agonist or antagonist treatment
Experimental: Both intact and gonadectomized mice (GDX) were used. […] To compare the effects of GnRH agonists and antagonists, gonadectomized animals were randomized at 14 to 18 days of age and begun immediately in one of the following main treatment groups: GnRH agonist; Antide; vehicle. One group of gonadectomized males was treated with Nal-Glu, as an additional control.
GnRH (native decapeptide) was purchased from Bachem (Bubendorf, Switzerland). GnRH antagonist Antide (Acetyl-β-[2-Naphthyl]-D-Ala-D-p-Chloro-Phe-β-[3-Pyridyl]-D-Ala-Ser-Nε-]-Lys-Nε-[Nicotinoyl]-D-Lys-Leu-Nε-[Isopropyl]-Lys-Pro-D-Ala-NH2) was supplied by Contraceptive Development Branch (NICHHD) of the National Institutes of Health and Ares-Serono (Randolph, Mass.). A second GnRH antagonist, Nal-Glu (acetyl-D2Nal1, D4ClPhe2, D3Pal3, Arg5, Dglu6(AA), DAla10) was supplied by NICHHD and was used on a subset of mice. All references to GnRH agonist refer to the native decapeptide. Animals were injected subcutaneously in the nape of the neck six times weekly, in the a.m., with 100 μg of GnRH or GnRH antagonist in 100 μl of vehicle consisting of 50% propylene glycol and 50% double distilled water. […]
Serum testosterone concentrations were measured by RIA using a commercial kit (Coat-A-Count, Diagnostic Products Corporation, Los Angeles, Calif.). Serum LH and prolactin were measured by radioimmunoassay (RIA) using previously described methods. […]

gonadectomized NOD mice = experiment: Serum total immunoglobulin G concentrations (single radial immunodiffusion) in gonadectomized NOD mice; details: 100 μg subcutaneously six times weekly, 8 weeks of treatment, compared to vehicle / sham operated, FIG. 1
Description: as §1, §2, §3, §4

Substance: GnRH agonist: GnRH (native decapeptide) purchased from Bachem; all references to GnRH agonist refer to the native decapeptide (QHWSYGLRPG; Gonadoliberin-1; UniProt P01148 24-33, looked up)
- Timing of onset of diabetes ([1]; gonadectomized NOD mice): accelerated the timing of onset of diabetes; also recorded: reciprocal effects
- Incidence of diabetes ([1]; gonadectomized male NOD mice, compared to vehicle, FIG. 2): significantly increased the incidence
- Serum prolactin levels (NOD mice): neither agonist nor antagonist treatment altered serum prolactin levels
- Serum IgG concentrations (gonadectomized NOD mice): further increased IgG levels compared to vehicle; also recorded: reciprocal effects
